These results are taken from ChEMBL document CHEMBL1201862, “PubChem BioAssay data set” (2004).

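Test compounds were applied to cells in 96-well plates for 48 hours at 5 doses. GI50 is the concentration that inhibits growth by half.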 The source made the active and inactive calls. Rule as the data show it: active = GI50 up to about 1.1 µM and inactive = higher. Some results are limits rather than exact numbers.

Holding throughout (assay): NCI anticancer screen, dose series, 48 h
The test system of assay [1] is IGROV-1.
The subject of assay [2] is K562.
Assay [3] relates to U-251.
Assay [4] has as its system RXF 393.
Assay [5] has as its system NCI-H522.
In assay [6] the test system is A498.
Assay [7] has as its system MDA-N.
In assay [8] the test system is MCF7.
Assay [9] has as its system SNB-19.
Assay [10] deals with SK-MEL-28.
Assay [11] has as its system DU-145.
Assay [12] concerns OVCAR-4.
Assay [13] concerns COLO 205.
For assay [14], the system named is LOX IMVI.
Assay [15] relates to CAKI-1.
Assay [16] deals with SNB-75.
The subject of assay [17] is NCI/ADR-RES.
The subject of assay [18] is M14.
Assay [19] concerns SR.

As to `NC1CCCCC1.O=P(O)(O)C(O)/C=C/c1ccccc1` (stereo not drawn), the GI50 in [1], in [2], in [3], in assay [4], in assay [5] and in assay [6] was > 100 µM (inactive) throughout. Further, the GI50 in [7], in assay [8], in assay [9], in assay [10], in assay [11] and in assay [12] was > 100 µM (inactive) in each case. Besides, the GI50 in [13], in [14], in assay [15], in assay [16], in assay [17] and in assay [18] was > 100 µM (inactive) each time.
For `O=C(CCCn1ccnc1[N+](=O)[O-])NCCn1cnc([N+](=O)[O-])c1`, the GI50 in assay [1], in [2], in assay [3], in assay [5], in assay [7] and in assay [8] was > 100 µM (inactive) throughout. Also, the GI50 in [9], in assay [10], in assay [11], in assay [12], in [13] and in assay [14] was > 100 µM (inactive) each time. Also, the GI50 in assay [15], in assay [16], in [17], in assay [18] and in [19] was > 100 µM (inactive) each time.
`C=C(C)CC1(O)C(=O)C(OCC)=C1OCC` (stereo not drawn): the GI50 in [1], in assay [3], in assay [5], in assay [6], in [7] and in [8] was > 100 µM (inactive) each time. Moreover, the GI50 in [9], in assay [10], in [11], in [12], in [13] and in assay [14] was > 100 µM (inactive) throughout. The GI50 is > 100 µM (inactive) in assay [15], 79.6 µM (inactive) in assay [16], > 100 µM (inactive) in assay [17] and > 100 µM (inactive) in assay [18].
With `CCCCCCCCCC(O)CC(=O)c1c(O)cccc1O` (stereo not drawn), the GI50 in assay [1] was 18.8 µM (inactive); in assay [2], 22.1 µM (inactive); in assay [3], 36.7 µM (inactive); in [4], 16.9 µM (inactive); in assay [5] it was 19 µM (inactive); in assay [6], 30.5 µM (inactive). Also, the GI50 is 22 µM (inactive) in assay [7]; 26.8 µM (inactive) in assay [8]; 29.9 µM (inactive) in [9]; 41.5 µM (inactive) in [10]; 38 µM (inactive) in assay [11]; 16.7 µM (inactive) in assay [12]. Further, the GI50 in assay [13] is 30.1 µM (inactive); in assay [14], 20.4 µM (inactive); in assay [15], 21.7 µM (inactive); in [16], 18.7 µM (inactive); in assay [17] it was 18.4 µM (inactive); in assay [18], 20.1 µM (inactive).
For the molecule `CCOc1ncn(-c2ccc(NC(=S)NC3OC(CO)C(O)C(O)C3O)cc2)n1` (stereo not drawn), the GI50 in assay [1], in assay [2], in [3], in assay [5], in assay [7] and in [8] was > 100 µM (inactive) each time. In addition, the GI50 in [9], in assay [10], in [11], in assay [12], in [13] and in assay [14] was > 100 µM (inactive) throughout. For the same molecule, the GI50 in [16], in [18] and in [19] was > 100 µM (inactive) in each case.
On to `CC[C@H](NC(=O)OC(C)(C)C)C(=O)NCP(=O)(OCc1ccc([N+](=O)[O-])cc1)OCc1ccc([N+](=O)[O-])cc1`, for which the GI50 in assay [1] was 38.5 µM (inactive); in [3] it was 21.6 µM (inactive); in [5], 31.6 µM (inactive); in assay [7] it was 28.6 µM (inactive); in assay [8], 48.9 µM (inactive); in [9] it was 43.1 µM (inactive). The GI50 in assay [10] is 28.4 µM (inactive); in assay [11] it was 31.6 µM (inactive); in [12], 25.1 µM (inactive); in assay [13], 16.5 µM (inactive); in assay [14] it was 32.4 µM (inactive); in assay [15], 43.2 µM (inactive). The GI50 was 38.9 µM (inactive) in [16], 33.1 µM (inactive) in assay [17], 30.9 µM (inactive) in assay [18] and 26.9 µM (inactive) in [19].
Consider `COc1ccc2oc(=O)c(-c3nc4ccccc4s3)cc2c1`, for which the GI50 in assay [1] is 12.8 µM (inactive); in [2] it was > 100 µM (inactive); in assay [3], 15 µM (inactive); in assay [4], 12.2 µM (inactive); in assay [5], 29.4 µM (inactive); in assay [6], 20.8 µM (inactive). Further, the GI50 was 20.1 µM (inactive) in assay [7]; 46.7 µM (inactive) in assay [9]; > 59.3 µM (inactive) in [10]; 21.8 µM (inactive) in [11]; 20.8 µM (inactive) in [12]; 54.1 µM (inactive) in [13]. Moreover, the GI50 in assay [14] was 17.8 µM (inactive); in assay [15], 18.5 µM (inactive); in [16] it was 8.65 µM (inactive); in assay [17], 28.8 µM (inactive); in [18], 22.7 µM (inactive); in [19] it was 22 µM (inactive).
`COC1CC(OC2CCC3(C)C(=CCC4C3C(OC(C)=O)C(OC(=O)CC(C)C)C3(C)C(C(C)=O)CCC43O)C2)OC(C)C1OC1CC(OC)C(OC2CC(OC)C(OC3OC(C)C(O)C(OC)C3O)C(C)O2)C(C)O1` (stereo not drawn): the GI50 in assay [1] was 32.4 µM (inactive); in [2], 36.6 µM (inactive); in assay [3], 37.8 µM (inactive); in assay [4], 20.1 µM (inactive); in assay [5], 37.9 µM (inactive); in assay [6] it was > 100 µM (inactive). For the same molecule, the GI50 was 32.1 µM (inactive) in assay [7]; 21.9 µM (inactive) in assay [8]; 86.5 µM (inactive) in assay [9]; 36 µM (inactive) in assay [10]; 40.6 µM (inactive) in assay [11]; 39.5 µM (inactive) in [12]. For the same molecule, the GI50 in assay [13] is 22 µM (inactive); in assay [14] it was 20.2 µM (inactive); in assay [15] it was 44 µM (inactive); in [16], 24.4 µM (inactive); in assay [18] it was 38.7 µM (inactive); in assay [19], 31.5 µM (inactive).
`COc1cc(CCC(=O)O)c2cc3ccccc3cc2c1O`: the GI50 in [1] is 18.7 µM (inactive); in assay [2], 20.8 µM (inactive); in assay [3], 16.4 µM (inactive); in assay [5] it was 20.7 µM (inactive); in [6], 33.6 µM (inactive); in assay [7], 17.3 µM (inactive). The GI50 in assay [8] was 16.4 µM (inactive); in [9], 23.5 µM (inactive); in assay [10], 22.4 µM (inactive); in assay [12], 15.6 µM (inactive); in assay [13] it was 18 µM (inactive); in assay [14], 21.5 µM (inactive). For the same molecule, the GI50 in assay [15] is 19.6 µM (inactive); in assay [17], 25.6 µM (inactive); in [18], 21.7 µM (inactive); in assay [19], 15.6 µM (inactive).
`CC(=O)NC1C(OCc2ccccc2)OC(CO)C(O)C1OCC(=O)N[C@@H](C)C(=O)N[C@H](CCC(=O)NCCCNc1ccc([N+](=O)[O-])c2[nH]c3ccccc3c(=O)c12)C(N)=O` (stereo partly drawn): the GI50 in assay [1] is 23.4 µM (inactive); in assay [2] it was > 100 µM (inactive); in assay [3], 48.3 µM (inactive); in assay [4], 63.5 µM (inactive); in assay [5] it was 29.3 µM (inactive); in [6] it was > 100 µM (inactive). In addition, the GI50 in [7] was > 100 µM (inactive); in [9], 37.4 µM (inactive); in [10], > 100 µM (inactive); in assay [11] it was 60.8 µM (inactive); in [12], 34 µM (inactive); in assay [13], > 100 µM (inactive). Further, the GI50 in assay [14] is 52.6 µM (inactive); in [15] it was > 100 µM (inactive); in assay [16], 46.6 µM (inactive); in [17], > 100 µM (inactive); in assay [18], > 100 µM (inactive); in assay [19], > 100 µM (inactive).
Regarding `Nc1nc(Cl)c(/N=N/c2ccc(Cl)cc2)c(NCC2(CO)CCC(CCc3ccccc3)C2)n1` (stereo not drawn), the GI50 is 6.22 µM (inactive) in [1]; 0.841 µM (active) in assay [2]; 14.1 µM (inactive) in assay [3]; 7.8 µM (inactive) in [4]; 1.31 µM (inactive) in [5]; 13.2 µM (inactive) in [6]. Also, the GI50 in assay [7] was 11.4 µM (inactive); in assay [8], 5.62 µM (inactive); in [9] it was 19.5 µM (inactive); in assay [10], 14.2 µM (inactive); in [11] it was 13.2 µM (inactive); in assay [12] it was 1.5 µM (inactive). Moreover, the GI50 was 4.86 µM (inactive) in assay [13]; 1.79 µM (inactive) in assay [14]; 2.8 µM (inactive) in assay [15]; 13.6 µM (inactive) in [16]; 4.56 µM (inactive) in [17]; 8.81 µM (inactive) in assay [18].
